Data on 2 compounds can be found in patent US20100197789A1, “ANTI-OBESITY AGENT AND USE THEREOF” (National University Corporation Nagoya University, priority 2006, published 2010).

Type in all cases: in vivo, mouse
One test deals with db/db mice. The test can be described thus: Food intake amount and body weight, 5 week-continuous oral administration in drinking water, db/db mice. To be noted: SKF97541 10×10^−6 M, 3-APPA 100×10^−6 M in drinking water; for time after start of administration from which body weight increase suppression was significant / time after start of administration from which cumulative food intake suppression was significant: continued until end of experiment; for body weight increase / cumulative food intake amount: oral, 5 weeks.

Test [1] deals with DIO mice. The test can be described thus: Food intake amount and body weight, 5 week-continuous oral administration, diet-induced obese (DIO) mice. To be noted: (±)-baclofen 5 mg/kg/day, SKF97541 0.3 mg/kg/day, 3-APPA 5 mg/kg/day; for body weight increase / food intake amount: DIO mice (high fat diet), oral in drinking water 5 weeks; for time after start of administration from which body weight increase suppression was significant / time after start of administration from which food intake suppression was significant: DIO mice, continued until 5 weeks. As for the experimental part:
(§1) 5 week-old male C57BL/6N mice (body weight 17 to 20 g, CLEA Japan, Inc.) were purchased and individually fed in tip cages. To the mice, normal pellet diet (CE-2) was administered under free water intake and free food intake. A body weight and a food intake amount over 24 hours were measured every day from the start of feeding. On day 3 after the start of feeding, blood was taken from an orbit after 6 hour-fasting and a blood glucose level and a blood insulin concentration were measured. The mice were divided into a control group and a baclofen treated group (10 mice per each group) so that a body weight, a 24 hour-food intake amount, a blood glucose level, and a blood insulin concentration were equal, and diet induced-obesity (DIO) was started to be induced by administration of high fat diet (High Fat Diet 32, energy fat ratio 60%, CLEA Japan, Inc.) (DIO mice). At the same time as the start of administering the high fat diet, (±)-baclofen was dissolved in drinking water and 5 week-continuous oral administration was started in a dosage of 5 mg per 1 kg of a body weight in 1 day (5 mg/kg/day). A food intake amount and a body weight were measured over time during the 5 week-administration period. (±)-baclofen (5 mg/kg/day) was orally administered also to C57BL/6N mice (lean mice) that are non-obese mice to which normal diet was administered in the same manner as described above, and a food intake amount and a body weight were measured over time.
(§2) 5 week-old male C57BL/6N mice (body weight 17 to 20 g, CLEA Japan, Inc.) were purchased and individually fed in tip cages. Normal pellet diet (CE-2) was administered to the mice under free water intake and free food intake. A body weight and a food intake amount over 24 hours were measured every day from the start of feeding. On day 3 after the start of feeding, blood was taken from an orbit after 6 hour-fasting and a blood glucose level and a blood insulin concentration were measured. The mice were divided into a control group, an SKF97541 treated group and a 3-APPA treated group (10 mice per each group) so that a body weight, a 24 hour-food intake amount, a blood glucose level, and a blood insulin concentration were equal, and diet induced-obesity (DIO) was started to be induced by administration of high fat diet (High Fat Diet 32, energy fat ratio 60%, CLEA Japan, Inc.) (DIO mice). At the same time as the start of administering the high fat diet, SKF97541 (0.3 mg/kg/day) or 3-APPA (5 mg/kg/day) was dissolved in drinking water and 5 week-continuous oral administration was started. A food intake amount and a body weight were measured over time during the 5 week-administration period. SKF97541 (0.3 mg/kg/day) or 3-APPA (5 mg/kg/day) was orally administered also to C57BL/6N mice (lean mice) to which normal diet was administered in the same manner as described above, and a food intake amount and a body weight were measured over time.

The test system of test [2] is DIO mice. The test can be described thus: Fasting blood glucose, HbA1c, blood insulin, plasma leptin and adiponectin after 5-week administration, DIO mice. Particulars: (±)-baclofen 5, SKF97541 0.3, 3-APPA 5 mg/kg/day, vs control; for fasting blood glucose level / fasting blood insulin concentration: 6 hour-fasting after 5 weeks oral; for HbA1c value: after 5 weeks oral. As for the experimental part:
The blood glucose level was measured by a glucose analyzer Antisense (HORIBA, Ltd.) promptly after taking blood from an orbit. HbA1c was measured by a glycohemoglobin analyzer HLC-723 GHbV (manufactured by TOSOH Corporation) after preserving blood at −80° C.
After taking blood from an orbit by using a hematocrit tube coated with heparin, blood was centrifuged at 3500 rpm at 4° C. for 15 minutes, and plasma was preserved at −80° C. The plasma concentrations of insulin, leptin and adiponectin were measured by the ELISA method (levis insulin kit (mouse): Shibayagi Co., Ltd., Morinaga Leptin assay kit: Morinaga Institute of Biological Science, Inc., Mouse/rat adiponectin ELISA kit: OTSUKA Pharmaceutical Co., Ltd.).
(±)-baclofen (5 mg/kg/day), SKF97541 (0.3 mg/kg/day) or 3-APPA (5 mg/kg/day) was orally administered to DIO mice for 5 weeks according to the above described method, and then blood was taken from an orbit after 6 hour-fasting and a blood glucose level, an HbA1c value and a blood insulin concentration were measured.
(±)-baclofen (5 mg/kg/day) was orally administered to DIO mice for 5 weeks according to the above described method, and then, blood was taken from an orbit after 6 hour-fasting, and a plasma leptin concentration and a plasma adiponectin concentration were measured. The DIO mice were sacrificed by cervical luxation after the end of the 5-week administration, and then epididymal white adipose tissues and subcutaneous white adipose tissues were surgically removed, and after measuring the weights, they were fixed in 4% formaldehyde. The epididymal white adipose tissues were cut out to prepare a section with a thickness of 8 μm and subjected to Hematoxylin-Eosin stain (H-E stain) and a form (size) of a fat cell was examined by using an image analysis system, Neurolucida (MicroBrightField Japan, Inc.).

Another test concerns db/^+m mice. The test can be described thus: Food intake amount and body weight, 5 week-continuous oral administration, non-obese db/+m mice. Particulars: SKF97541 10×10^−6 M, 3-APPA 100×10^−6 M in drinking water. The protocol:
5 week-old male C57BL/KsJ-db/^+m mice (db/^+m mice: body weight 19 to 23 g, Japan SLC, Inc.) were purchased and individually fed in tip cages. To the db/^+m mice, normal pellet diet (CE-2) was administered under free water intake and free food intake. A body weight and a food intake amount over 24 hours were measured every day from the start of feeding. On day 3 after the start of feeding, blood was taken from an orbit after 6 hour-fasting and a blood glucose level and a blood insulin concentration were measured. The db/^+m mice were divided into two groups (10 mice per each group) so that a body weight, a 24 hour-food intake amount, a blood glucose level, and a blood insulin concentration were equal, and defined to be a control group and a baclofen treated group. After division into the groups, from day 5 after the start of feeding, (±)-baclofen was dissolved in drinking water and 5 week-continuous oral administration was started in the baclofen treated group. (±)-baclofen was dissolved in drinking water at a concentration of 2.7 mg/dl used in the high concentration treated group in the experiment of db/db mice. A food intake amount and a body weight of the db/^+m mice were measured over time, and a rectal temperature was measured 5 weeks after the start of the administration. Blood was taken after the 5-week administration of (±)-baclofen, and the db/^+m mice were sacrificed by cervical luxation.
5 week-old male C57BL/KsJ-db/db mice (db/db mice: body weight 19 to 25 g, Japan SLC, Inc.) were purchased and individually fed in tip cages. Normal pellet diet (CE-2) was administered to the db/db mice under free water intake and free food intake. A body weight and a food intake amount over 24 hours were measured every day from the start of feeding. On day 3 after the start of feeding, blood was taken from an orbit after 6 hour-fasting and a blood glucose level and a blood insulin concentration were measured. The db/db mice were divided into three groups (10 mice per each group) so that a body weight, a 24 hour-food intake amount, a blood glucose level, and a blood insulin concentration were equal and defined to be a control group, an SKF97541 treated group and a 3-APPA treated group. SKF97541 and 3-APPA were dissolved in drinking water at respective concentrations of 10×10^−6 M and 100×10^−6 M, and continuously orally administered for 5 weeks, and a food intake amount and a body weight were measured over time during the administration period. SKF97541 (10×10^−6 M) or 3-APPA (100×10^−6M) was dissolved in drinking water and orally administered also to db/^+m mice, and a food intake amount and a body weight were measured over time in the same manner.

Another test has as its system lean mice. The test is described as follows: Food intake amount and body weight, 5 week-continuous oral administration, non-obese lean mice. To be noted: lean mice (normal diet); oral 5 weeks; (±)-baclofen 5 mg/kg/day, SKF97541 0.3 mg/kg/day, 3-APPA 5 mg/kg/day. The protocol:
as §1, §2

For `NCCCP(=O)(O)O` [3-APPA, 3-aminopropylphosphonic acid], in the test with db/db mice, the “time after start of administration from which body weight increase suppression was significant” value is reported as 1 week, the “time after start of administration from which cumulative food intake suppression was significant” value amounted to 1 weeks, the body weight increase entry is on record as “significantly suppressed” and the “cumulative food intake amount” value is reported as “significantly suppressed”. In the test with DIO mice [1], the body weight increase entry is given as “significantly suppressed”, the food intake amount entry is “significantly suppressed”, the “time after start of administration from which body weight increase suppression was significant” value worked out at 1 week and the “time after start of administration from which food intake suppression was significant” value is recorded as 1 week. In the test with DIO mice [2], the “fasting blood glucose level” value is reported as “significant decreases”, the “fasting blood insulin concentration” value is recorded as “significant decreases” and the HbA1c value result is recorded as “significant decreases”. Moreover, in the test with db/^+m mice, the body weight result is recorded as “did not give significant effects” and the food intake amount entry is reported as “did not give significant effects”. For the same compound, in the test with lean mice, the body weight result is “did not give significant effects” and the food intake amount result was “did not give significant effects”.
Regarding `CP(=O)(O)CCCN` [SKF97541, 3-aminopropyl-(methyl)phosphinic acid], in the test on db/db mice, the “time after start of administration from which body weight increase suppression was significant” value stood at 1 week, the “time after start of administration from which cumulative food intake suppression was significant” value came out at 2 weeks, the body weight increase result is “significantly suppressed” and the “cumulative food intake amount” value is “significantly suppressed”. In the test on DIO mice [1], the body weight increase result was “significantly suppressed”, the food intake amount entry is “significantly suppressed”, the “time after start of administration from which body weight increase suppression was significant” value is 1 week and the “time after start of administration from which food intake suppression was significant” value stood at 1 week. In addition, in the test with DIO mice [2], the “fasting blood glucose level” value is reported as “significant decreases”, the “fasting blood insulin concentration” value is given as “significant decreases” and the HbA1c value entry is reported as “significant decreases”. Besides, in the test on db/^+m mice, the body weight entry was “did not give significant effects” and the food intake amount entry is on record as “did not give significant effects”. For the same compound, in the test on lean mice, the body weight result is recorded as “did not give significant effects” and the food intake amount result was “did not give significant effects”.
